For orientation: IC50 means the concentration that gives 50% inhibition.

The assay relates to NLRP3. Nature of the assay: IL-1β secretion assay in PMA-differentiated, LPS/nigericin-stimulated THP-1 cells (ELISA). The note with it: Homo sapiens, 25 ng/mL LPS, nigericin. The class given is cell-based. The procedure:
Compounds as provided herein were tested in the following assay. Cell culture medium employed contained RPMI 1640 medium (89%), FBS (10%), Pen/Strep (1%), and 2-mercaptoethanol (0.05 mM). Freezing medium was made up of 90% FBS and 10% DMSO. THP-1 cells were removed from the liquid nitrogen and placed into a 37° C. water bath to thaw, until signs of ice dissipated. The cells were then added to 9 mL of warm cell culture medium and centrifuged for 5 minutes at 1000 rpm. The supernatant was discarded, and the cells were resuspended in new cell culture medium. THP-1 cells were then split and cultured in the cell culture medium, being passaged every 2-3 days with the cell density will be maintained between 5×10^5 and 1.5×10^6 viable cells/mL.
PMA was dissolved in DMSO to make a stock solution at 5 mg/ml and stored in 10 μl aliquots at −20° C. for single use. PMA is added to normal growth medium. LPS was diluted with 1 mL of water solution to provide a 1 mg/mL stock solution and stored in 15 μl aliquots at −20° C. for single use. Nigericin is diluted in ice cold 100% ethanol to 5 mg/ml (6.7 mM) and stored in 75 μL aliquots at −20° C. for single use. Serum-free media contains RPMI 1640 medium (99%), Pen/Strep (1%), and 2-mercaptoethanol (0.05 mM). The two control conditions used to qualify and normalize test compound dose-response curves were as follows: High Control=25 ng/mL LPS, 5 μM Nigericin, 0.5% DMSO, Low Control=25 ng/ml, LPS, 0.5% DMSO.
THP-1 cells were diluted to provide a suspension at a concentration of 1.0×10^6 cells/mL with the total volume of suspension required to enable the desired number of assay plates. The growth media was supplemented with PMA (5 ng/mL final concentration) and the cells were incubated at 37° C. under a humidified atmosphere of 5% CO2 for 40 h.
All media was carefully aspirated from each culture flask. The cells were washed carefully with 1× DPBS. The cells were then briefly digested with trypsin LE for 5 minutes at 23° C. and immediately resuspended in cell growth media. After resuspension, the cells were centrifuged at 1000 rpm for 3 minutes and the supernatant was discarded. The cells were resuspended in DPBS and once again centrifuged at 1000 rpm for 5 minutes. The supernatant was discarded and the cell pellet was resuspended in serum-free media supplemented with LPS (25 ng/mL final concentration) to enable the distribution of 30K THP-1 cells within 45 μL of media into each well of 384-well PDL-coated plates. The 384-well plates were then incubated at 37° C. under a humidified atmosphere of 5% CO2 for 2 h. Following this period, test compounds were dispensed by Tecan across the desired concentration range with all wells normalized to a final 0.5% DMSO concentration. The plates were then then incubated at 37° C. under a humidified atmosphere of 5% CO2 for 1 h. Following this period, 5 μL of the 5 mg/mL nigericin stock solution was added to each of the appropriate wells and plates were centrifuged at 1000 rpm for 30 seconds. The plates were the immediately reintroduced to the incubator at 37° C. under a humidified atmosphere of 5% CO2 for 2 h. After this time, 35 μL/well of supernatant was collected and transferred into v-bottom plate and centrifuged at 1000 rpm for 1 minute. These supernatant aliquots were analyzed using an IL-Iβ detection kit as described below. If needed, the test samples could be snap frozen and stored at −80° C. until analyzed.
To prepare each ELISA plate, capture antibody (mAb Mt175) was diluted with PBS to a final concentration of 2 μg/mL and then 20 μL of this solution was added to each well of the ELISA plate. Each plate was allowed to incubate overnight at 4° C. The next day, the capture antibody solution was removed and discarded. Each ELISA plate was washed 4 times with PBST followed by the addition of 25 uL/well of blocking buffer (Licor-927-40010) supplemented with 0.1% Tween 20. Each ELISA plate was then allowed to incubate for 1 hour at 23° C. […]

Turning to `N#Cc1cnc(NC(=O)Cn2nc(C(F)F)n3c(cc4sccc43)c2=O)c(F)c1` [Example 4, N-(5-cyano-3-fluoropyridin-2-yl)-2-[12-(difluoromethyl)-9-oxo-5-thia-1,10,11-triazatricyclo[6.4.0.02,6]dodeca-2(6),3,7,11-tetraen-10-yl]acetamide], the IC50 came to 252 nM. The compound also came in with an IC50 (class symbol) of less than 10000 nM.
In turn, `O=C(Cn1nc(C(F)F)n2c(cc3sccc32)c1=O)Nc1ncc(F)cn1` [Example 1, 2-(5-(difluoromethyl)-8-oxothieno[2′,3′:4,5]pyrrolo[1,2-d][1,2,4]triazin-7(8H)-yl)-N-(5-fluoropyrimidin-2-yl)acetamide] showed an IC50 of 162 nM. For the same compound, the half-inhibitory concentration (IC50) (class symbol) is less than 10000 nM.
The compound `CC1(O)CC(NC(=O)Cn2nc(C(F)F)n3c(cc4sccc43)c2=O)C1` (stereo not drawn) [Example 3, 2-(5-(difluoromethyl)-8-oxothieno[2′,3′:4,5]pyrrolo[1,2-d][1,2,4]triazin-7(8H)-yl)-N-(3-cis-hydroxy-3-methylcyclobutyl)acetamide] showed a 50% inhibitory concentration (IC50) of 101 nM. The IC50 (class symbol) is less than 10000 nM.
The compound `O=C(Cn1nc(CF)n2c(cc3sccc32)c1=O)Nc1ncc(F)cn1` [Example 5, 2-(5-(fluoromethyl)-8-oxothieno[2′,3′:4,5]pyrrolo [1,2-d][1,2,4]triazin-7(8H)-yl)-N-(5-fluoropyrimidin-2-yl)acetamide] had a concentration for half-maximal inhibition (IC50) of 94 nM. This compound also yielded an IC50 (class symbol) of less than 10000 nM.
Consider `O=C(Cn1nc(C(F)F)n2c(cc3scnc32)c1=O)Nc1ncc(F)cn1` [Example 6, 2-(5-(difluoromethyl)-8-oxothiazolo[5′,4′:4,5]pyrrolo[1,2-d][1,2,4]triazin-7(8H)-yl)-N-(5-fluoropyrimidin-2-yl)acetamide], for which it took 149 nM to reach half-maximal inhibition (IC50). The same compound displayed an IC50 (class symbol) of less than 10000 nM.
Turning to `O=C(Cn1nc(C(F)F)n2c(cc3sccc32)c1=O)Nc1ncccn1` [Example 2, 2-(5-(difluoromethyl)-8-oxothieno[2′,3′:4,5]pyrrolo[1,2-d][1,2,4]triazin-7(8H)-yl)-N-(pyrimidin-2-yl)acetamide], the IC50 is 341 nM. This compound also displayed an IC50 (class symbol) of less than 10000 nM.

Values taken from US20240391932A1, “COMPOUNDS, COMPOSITIONS AND METHODS” (Nico Therapeutics, Inc., priority 2021, published 2024).
